From US6375461B1 (Ultradent Products, Inc., priority 2000, dated 2002)
Where two headings read alike, the source gives them in different places.

What was measured:
[1] = tested on: heart rate and blood pressure; assay: Systemic effects (heart rate, blood pressure) of retraction cords packed into the gingival sulcus; conditions: retraction cords packed into a person's gingival sulcus
[2] = cited from earlier work
[3] = Reaction with iron-based astringents (ferric salts), formation of colored reaction products; type: physicochemical; conditions: mixed with astringent salts
gingival tissue = assay: Local effect on gingival tissue when used in gingival retraction cords; type: in vivo, patient
[4] = mixed with ferric salts; cited from earlier work
[5] = tested on: heart rate and blood pressure; conditions: in vivo

Row | SMILES | systemic effects: heart rate and blood pressure [1] | volume of water in which 1 gram is dissolvable [2] | colored reaction products with astringent salts including ferric salts [3] | stiffening and retraction of gingival tissue (gingival tissue; gingival tissue) | vasoconstricting effect (gingival tissue; used in gingival retraction cords) | colored reaction products with ferric salts (known) [4] | systemic effects: heart rate and blood pressure [5]
1 | CNC(C)CC1CCCCC1 (stereo not drawn) [Propylhexedrine, N,α-dimethylcyclohexaneethylamine] | does not produce the systemic adrenal effects | 500 mL | without forming colored reaction products | localized stiffening and retraction of gingival tissue | localized vasoconstricting effect |  | 
2 | CNC[C@H](O)c1ccc(O)c(O)c1 [epinephrine] |  |  |  |  |  | immediately form purple-colored reaction products | increase a patient's heart rate and blood pressure
